Measured values taken from patent US4224316A, “Synthetic peptides having pituitary growth hormone releasing activity” (Beckman Instruments, Inc., priority 1979, dated 1980).
Square brackets hold non-standard residues; d marks the D form. Peptide text beside a SMILES is read from it.

Test system: pituitaries removed from 20 day old female rats
Assay: In vitro growth hormone release study (incubated rat pituitaries, GH radioimmunoassay of the medium)
Assay type: cell-based
Details: mean ± SEM, two pituitaries in 1 ml lactated Ringer's solution, 36° C., peptide added hourly for 2 hours
Procedure: Female rats of the CD-l strain were housed in a constant temperature room at 24° C. with 14 hours light and 10 hours darkness. The rats were fed Purina brand rat chow ab libitum.
All studies were started between 0800 and 1000 hours.
Pituitaries were removed from 20 day old female rats. Two pituitaries were incubated at 36° C. in 1 ml of lactated Ringer's solution in 10 ml polytetrafluoroethylene beakers in a Dubnoff Shaker (90 cycles/min.). The pituitaries were incubated a total of 4 hours (P1, P2, I3, and I4). After two successive one hour preincubation periods (P1, P2), the peptide was added to the incubation medium hourly for 2 hours (I3, I4).
This in vitro study was performed in triplicate and a standard radioimmunoassay of growth hormone present in the incubation medium was performed in duplicate. The hormonal activity was calculated as the difference (Δ) of growth hormone (GH) levels between I3, I4 and P2, i.e., (I3 -P2) and (I4 -P2). P values were calculated by Students' t test using six growth hormone values for each value recorded.
The growth hormone radioimmunoassay reagents were distributed by the National Institute of Arthritis and […] (NIAMDD) program. The growth hormone values were calculated in terms of nanograms (ng) of a rat standard with a growth hormone potency of 0.61 units/mg.

SMILES | In vitro growth hormone release (ΔGH between I3, I4 and P2) (1μg peptide) | In vitro growth hormone release (ΔGH between I3, I4 and P2) (10μg peptide) | In vitro growth hormone release (ΔGH between I3, I4 and P2) (100μg peptide)
CSCC[C@H](NC(=O)[C@H](Cc1ccccc1)NC(=O)[C@@H](Cc1c[nH]c2ccccc12)NC(=O)[C@H](Cc1ccccc1)NC(=O)[C@H](N)Cc1ccccc1)C(N)=O [H2 N-D-Phe-Phe-D-Trp-Phe-Met-CONH2] (H-[dF]F[dW]FM-NH2) | 130 ± 143 ng.increment.GH/ml incubation | 955 ± 248 ng.increment.GH/ml incubation | 1060 ± 469 ng.increment.GH/ml incubation
NCCCC[C@H](NC(=O)[C@H](Cc1ccccc1)NC(=O)[C@@H](Cc1ccccc1)NC(=O)[C@H](Cc1c[nH]c2ccccc12)NC(=O)[C@H](N)Cc1ccccc1)C(N)=O [H2 N-D-Phe-Trp-D-Phe-Phe-Lys-CONH2] (H-[dF]W[dF]FK-NH2) | -109 ± 101 ng.increment.GH/ml incubation | 888 ± 120 ng.increment.GH/ml incubation | 963 ± 96 ng.increment.GH/ml incubation
CSCC[C@H](NC(=O)[C@H](Cc1ccccc1)NC(=O)[C@@H](Cc1ccccc1)NC(=O)[C@H](Cc1c[nH]c2ccccc12)NC(=O)[C@H](N)Cc1ccccc1)C(N)=O [H2 N-D-Phe-Trp-D-Phe-Phe-Met-CONH2] (H-[dF]W[dF]FM-NH2) |  | 1469 ± 153 ng.increment.GH/ml incubation | 1483 ± 168 ng.increment.GH/ml incubation
